Test results: patent US20240158446A1, “CYCLIC COMPOUND HAVING SELECTIVE INHIBITORY ACTION ON KRAS OVER HRAS AND NRAS” (CHUGAI SEIYAKU KABUSHIKI KAISHA, priority 2021, published 2024)
Like-named read-outs stand apart in the source and are kept apart here. Where a SMILES comes first, the peptide text is derived from it. Bridges are numbered along the chain shown (N, C = ends). [ ]: non-standard residue; d: D form. The star is where a group is joined. hPhe(3,5-F2-4-CF3) = N[C@@H](CCc1cc(F)c(C(F)(F)F)c(F)c1)C(=O)O; hPhe(3-Cl-4-CF3) = N[C@@H](CCc1ccc(C(F)(F)F)c(Cl)c1)C(=O)O; NPrPhe(4-CF3) = CCCN[C@@H](Cc1ccc(C(F)(F)F)cc1)C(=O)O; NMeAbu(4,4,4-F3) = CN[C@@H](CC(F)(F)F)C(=O)O; NMeGly(cPent) = CN[C@H](C(=O)O)C1CCCC1; Hyp = O=C(O)[C@@H]1C[C@@H](O)CN1; NMeD = CN[C@@H](CC(=O)O)C(=O)O; NMeL = CN[C@@H](CC(C)C)C(=O)O; Morpholide = C1CN(*)CCO1; NMeA = CN[C@@H](C)C(=O)O; Ac5c = NC1(C(=O)O)CCCC1; Aze = O=C(O)[C@@H]1CCN1; Ac4c = NC1(C(=O)O)CCC1; Sar = CNCC(=O)O

Tests used:
[1] = molecular target: GDP-bound NRAS wild-type protein (Homo sapiens, UniProt P01111); assay: Binding to NRAS by surface plasmon resonance (SPR), Single Cycle Kinetics; conditions: for NRAS/KRAS (ratio of KD value for NRAS to KD value for KRAS) / NRAS/KRAS (ratio of KD value with respect to NRAS to KD value with respect to KRAS): SPR, GDP-bound NRAS wild-type protein vs GDP-bound KRAS wild-type protein; for NRAS/KRAS (ratio of KD value with respect to GDP-bound NRAS wild-type protein to KD value with respect to KRAS): SPR KD ratio NRAS/KRAS, class symbols
Sequence of GDP-bound NRAS wild-type protein (P01111 whole entry): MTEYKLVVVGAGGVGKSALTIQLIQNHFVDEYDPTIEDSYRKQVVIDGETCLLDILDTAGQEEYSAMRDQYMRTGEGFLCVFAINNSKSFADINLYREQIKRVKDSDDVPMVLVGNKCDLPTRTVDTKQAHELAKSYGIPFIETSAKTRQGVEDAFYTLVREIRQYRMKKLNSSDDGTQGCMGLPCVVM

[2] = molecular target: GDP-bound HRAS wild-type protein (Homo sapiens, UniProt P01112); assay: Binding to HRAS by surface plasmon resonance (SPR), Single Cycle Kinetics; conditions: for HRAS/KRAS (ratio of KD value for HRAS to KD value for KRAS) / HRAS/KRAS (ratio of KD value with respect to HRAS to KD value with respect to KRAS): SPR, GDP-bound HRAS wild-type protein vs GDP-bound KRAS wild-type protein; for HRAS/KRAS (ratio of KD value with respect to GDP-bound HRAS wild-type protein to KD value with respect to KRAS): SPR KD ratio HRAS/KRAS, class symbols
Sequence of GDP-bound HRAS wild-type protein (P01112 whole entry): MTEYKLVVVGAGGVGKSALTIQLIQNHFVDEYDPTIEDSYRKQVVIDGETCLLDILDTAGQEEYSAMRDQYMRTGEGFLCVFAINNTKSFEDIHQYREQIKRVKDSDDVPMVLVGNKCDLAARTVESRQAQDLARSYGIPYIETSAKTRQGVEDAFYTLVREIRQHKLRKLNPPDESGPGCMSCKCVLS

[3] = molecular target: GDP-bound KRAS wild-type protein (Homo sapiens, UniProt P01116); assay: Binding to KRAS by surface plasmon resonance (SPR), Single Cycle Kinetics; conditions: GDP-bound KRAS wild-type protein, read-out: KRAS KD
Sequence of GDP-bound KRAS wild-type protein (P01116 whole entry): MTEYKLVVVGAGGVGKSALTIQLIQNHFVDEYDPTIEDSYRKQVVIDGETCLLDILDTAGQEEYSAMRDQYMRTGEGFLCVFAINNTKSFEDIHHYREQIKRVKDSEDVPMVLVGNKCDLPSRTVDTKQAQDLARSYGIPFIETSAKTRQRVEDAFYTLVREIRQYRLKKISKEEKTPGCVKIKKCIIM

[4] = SPR Single Cycle Kinetics, 1:1 binding model

| SMILES | Kd ([3]; SPR, Single Cycle Kinetics) [pM] | Kd [3, 4] [pM] | NRAS/KRAS (ratio of KD value for NRAS to KD value for KRAS) [1] | HRAS/KRAS (ratio of KD value for HRAS to KD value for KRAS) [2] | NRAS/KRAS (ratio of KD value with respect to GDP-bound NRAS wild-type protein to KD value with respect to KRAS) [1] | HRAS/KRAS (ratio of KD value with respect to GDP-bound HRAS wild-type protein to KD value with respect to KRAS) [2] | NRAS/KRAS (ratio of KD value with respect to NRAS to KD value with respect to KRAS) [1] | HRAS/KRAS (ratio of KD value with respect to HRAS to KD value with respect to KRAS) [2] |
| --- | --- | --- | --- | --- | --- | --- | --- | --- |
| CCO[C@@H]1C[C@H]2C(=O)NC3(CC(F)(F)C3)C(=O)N(C)[C@@H](C3CCCC3)C(=O)N(C)[C@H](C(=O)N3CCOCC3)CC(=O)N(C)[C@@H](CC(C)C)C(=O)N[C@@H]([C@@H](C)CC)C(=O)N(C)CC(=O)N(C)[C@H]3CC=C(C)CN(C3=O)[C@@H](Cc3ccc(C(F)(F)F)cc3)C(=O)N(C)CC(=O)N[C@@H](CCc3cc(F)c(C(F)(F)F)c(F)c3)C(=O)N2C1 [PP0828] | 170 |  | C (A compound having a KD ratio of 0.1 or more and less than 3 is denoted as C) | C (A compound having a KD ratio of 0.1 or more and less than 3 is denoted as C) |  |  |  |  |
| CCC[C@H]1C(=O)N[C@@H]([C@@H](C)CC)C(=O)N(C)CC(=O)N(C)[C@H]2C/C=C\CCN(C2=O)[C@@H](Cc2ccc(C(F)(F)F)cc2)C(=O)N(C)CC(=O)N[C@@H](CCc2ccc3sc(C)c(C)c3c2)C(=O)N2C[C@H](OCC)C[C@H]2C(=O)NC2(CC(C)(C)C2)C(=O)N(C)[C@@H](C(CC)CC)C(=O)N(C)[C@H](C(=O)N(C)C)CC(=O)N1C [PP2900] |  | 440 |  |  | AA (a compound having 20 or more is denoted as AA) | A (a compound having 10 or more and less than 20 is denoted as A) |  |  |
| CCCN1C(=O)CN(C)C(=O)[C@@H]2CCN2C(=O)[C@H]([C@@H](C)CC)NC(=O)[C@H](CC(C)C)N(C)C(=O)C[C@@H](C(=O)N2CCOCC2)N(C)C(=O)[C@H](CC(F)(F)F)N(C)C(=O)C2(CCCC2)NC(=O)[C@@H]2CCCN2C(=O)[C@H](CCc2cc(F)c(C(F)(F)F)c(F)c2)NC(=O)CN(C)C(=O)[C@@H]1Cc1ccc(C(F)(F)F)cc1 [PP0784] ([NMeL]I[Aze][Sar][NPrPhe(4-CF3)][Sar][hPhe(3,5-F2-4-CF3)]P[Ac5c][NMeAbu(4,4,4-F3)][NMeD]-Morpholide; lactam N-11) |  | 17000 |  |  |  |  | B (a compound having 3 or more and less than 10 is denoted as B) | B (a compound having 3 or more and less than 10 is denoted as B) |
| CCC(CC)[C@H]1C(=O)N(C)[C@H](C(=O)N(C)C)CC(=O)N(C)[C@@H](COC)C(=O)N[C@@H]([C@@H](C)CC)C(=O)N(C)CC(=O)N(C)[C@H]2C/C=C\CCN(C2=O)[C@@H](Cc2ccc(C(F)(F)F)cc2)C(=O)N(C)CC(=O)N[C@@H](CCc2cc(F)c(C(F)(F)F)c(F)c2)C(=O)N2CCCC[C@H]2C(=O)NC2(CC(C)(C)C2)C(=O)N1C [PP2916] |  | 1300 |  |  | A (a compound having 10 or more and less than 20 is denoted as A) | A (a compound having 10 or more and less than 20 is denoted as A) |  |  |
| CC[C@H](C)[C@@H]1NC(=O)[C@H](COC)N(C)C(=O)C[C@@H](C(=O)N2CCOCC2)N(C)C(=O)[C@H](C2CCCC2)N(C)C(=O)C2(CCC2)NC(=O)[C@@H]2C[C@@H](OC)CN2C(=O)[C@H](CCc2cc(F)c(C(F)(F)F)c(F)c2)NC(=O)CN(C)C(=O)[C@H](Cc2ccc(C(F)(F)F)cc2)N2CCCCC[C@@H](C2=O)N(C)C(=O)CN(C)C1=O [PP0837] | 190 |  | B (a compound having 3 or more and less than 10 is denoted as B) | B (a compound having 3 or more and less than 10 is denoted as B) |  |  |  |  |

More lines, main results first:

| Kd ([3]; SPR, Single Cycle Kinetics) [pM] | Kd [3, 4] [pM] | SMILES | NRAS/KRAS (ratio of KD value for NRAS to KD value for KRAS) [1] | HRAS/KRAS (ratio of KD value for HRAS to KD value for KRAS) [2] | NRAS/KRAS (ratio of KD value with respect to GDP-bound NRAS wild-type protein to KD value with respect to KRAS) [1] | HRAS/KRAS (ratio of KD value with respect to GDP-bound HRAS wild-type protein to KD value with respect to KRAS) [2] | NRAS/KRAS (ratio of KD value with respect to NRAS to KD value with respect to KRAS) [1] | HRAS/KRAS (ratio of KD value with respect to HRAS to KD value with respect to KRAS) [2] |
| --- | --- | --- | --- | --- | --- | --- | --- | --- |
| 200 |  | C=CCN1CC(=O)N(C)[C@H]2C/C=C\CCN(C2=O)[C@@H](Cc2ccc(C(F)(F)F)cc2)C(=O)N(C)CC(=O)N[C@@H](CCc2ccc(C(F)(F)F)c(OC)c2)C(=O)N2C[C@H](OCC)C[C@H]2C(=O)NC2(CC(C)(C)C2)C(=O)N(C)[C@@H](C2CCCC2)C(=O)N(C)[C@H](C(=O)N(C)C)CC(=O)N(C)[C@@H](CCC)C(=O)N[C@@H]([C@@H](C)CC)C1=O [PP2106] | A (a compound having 10 or more and less than 20 is denoted as A) | A (a compound having 10 or more and less than 20 is denoted as A) |  |  |  |  |
|  | 3200 | CCC[C@H]1C(=O)N[C@@H]([C@@H](C)CC)C(=O)N(C)CC(=O)N(C)[C@H]2C/C=C\CCN(C2=O)[C@@H](Cc2ccc(C)cc2)C(=O)N(C)CC(=O)N[C@@H](CCc2ccc3c(C)c(C)n(C)c3c2)C(=O)N2C[C@H](OCC)C[C@H]2C(=O)NC2(CC(C)(C)C2)C(=O)N(C)[C@@H](C2CCCC2)C(=O)N(C)[C@H](C(=O)N(C)C)CC(=O)N1C [PP2895] |  |  | A (a compound having 10 or more and less than 20 is denoted as A) | A (a compound having 10 or more and less than 20 is denoted as A) |  |  |
|  | 37 | CCCN1C(=O)[C@@H]2CCN2C(=O)[C@H](C)N(C)C(=O)[C@H]([C@@H](C)CC)NC(=O)[C@H](CC(C)C)N(C)C(=O)C[C@@H](C(=O)N2CCOCC2)N(C)C(=O)[C@H](C2CCCC2)N(C)C(=O)C2(CCCC2)NC(=O)[C@@H]2C[C@@H](OCC)CN2C(=O)[C@H](CCc2ccc(C(F)(F)F)c(Cl)c2)NC(=O)CN(C)C(=O)[C@@H]1Cc1ccc(C(F)(F)F)cc1 [PP0228] ([NMeL]I[NMeA][Aze][NPrPhe(4-CF3)][Sar][hPhe(3-Cl-4-CF3)][Hyp](Et)[Ac5c][NMeGly(cPent)][NMeD]-Morpholide; lactam N-11) | C (A compound having a KD ratio of 0.1 or more and less than 3 is denoted as C) | B (a compound having 3 or more and less than 10 is denoted as B) |  |  |  |  |
|  | 6200 | CC[C@H](C)[C@@H]1NC(=O)[C@@H](CC(C)C)N(C)C(=O)C[C@@H](C(=O)N(C)C)N(C)C(=O)[C@@H](C2CCCC2)N(C)C(=O)C2(CCCC2)NC(=O)[C@@H]2CCCN2C(=O)[C@H](CCc2ccc(C(F)(F)F)c(Cl)c2)NC(=O)CN(C)C(=O)[C@@H](Cc2ccc(C)cc2)N2CC/C=C\CCN(CC2=O)C(=O)CN(C)C1=O [PP0618] |  |  |  |  | C (A compound having a KD ratio of 0.1 or more and less than 3 is denoted as C) | C (A compound having a KD ratio of 0.1 or more and less than 3 is denoted as C) |
|  | 180 | CCCN1C(=O)[C@@H]2CCN2C(=O)[C@H](C)N(C)C(=O)[C@H]([C@@H](C)CC)NC(=O)[C@H](CC(C)C)N(C)C(=O)C[C@@H](C(=O)N(C)C)NC(=O)[C@H](C2CCCC2)N(C)C(=O)C2(CCC2)NC(=O)[C@@H]2C[C@@H](OCC)CN2C(=O)[C@H](CCc2ccc(C(F)(F)F)c(Cl)c2)NC(=O)CN(C)C(=O)[C@@H]1Cc1ccc(C(F)(F)F)cc1 [PP0384] ([NMeL]I[NMeA][Aze][NPrPhe(4-CF3)][Sar][hPhe(3-Cl-4-CF3)][Hyp](Et)[Ac4c][NMeGly(cPent)]D-NMe2; lactam N-11) | C (A compound having a KD ratio of 0.1 or more and less than 3 is denoted as C) | B (a compound having 3 or more and less than 10 is denoted as B) |  |  |  |  |
